According to ChEMBL document CHEMBL3865846, “Synthesis and biological evaluation of ricinoleic acid-based lipoamino acid derivatives” (Bioorg Med Chem Lett, 2016):
Converted amounts (≈) assume the structure as drawn.

Tests used:
Type in all cases: functional
[1] = system: Candida albicans; assay: Antimicrobial activity against Candida albicans MTCC3018 measured after 24 hrs by well-diffusion method; conditions: MTCC3018, 24 h
[2] = system: Candida albicans; assay: Antimicrobial activity against Candida albicans MTCC854 measured after 24 hrs by well-diffusion method; conditions: MTCC854, 24 h
[3] = system: Bacillus subtilis; assay: Bactericidal activity against Bacillus subtilis MTCC121 measured after 24 hrs; conditions: MTCC121, 24 h
[4] = system: Candida albicans; assay: Antimicrobial activity against Candida albicans MTCC183 measured after 24 hrs by well-diffusion method; conditions: MTCC183, 24 h
[5] = system: Bacillus subtilis; assay: Antimicrobial activity against Bacillus subtilis MTCC121 measured after 24 hrs by well-diffusion method; conditions: MTCC121, 24 h
[6] = system: Candida albicans; assay: Antimicrobial activity against Candida albicans MTCC4748 measured after 24 hrs by well-diffusion method; conditions: MTCC4748, 24 h
[7] = system: Escherichia coli; assay: Antimicrobial activity against Escherichia coli MTCC739 measured after 24 hrs by well-diffusion method; conditions: MTCC739, 24 h
[8] = system: Candida albicans; assay: Antimicrobial activity against Candida albicans MTCC7315 measured after 24 hrs by well-diffusion method; conditions: MTCC7315, 24 h
[9] = system: Staphylococcus aureus; assay: Bactericidal activity against Staphylococcus aureus MLS16 MTCC2940 measured after 24 hrs; conditions: MLS16 MTCC2940, 24 h
[10] = system: Staphylococcus aureus; assay: Bactericidal activity against Staphylococcus aureus MTCC96 measured after 24 hrs; conditions: MTCC96, 24 h
[11] = system: Candida albicans; assay: Antimicrobial activity against Candida albicans MTCC1637 measured after 24 hrs by well-diffusion method; conditions: MTCC1637, 24 h
[12] = system: Micrococcus luteus; assay: Antimicrobial activity against Micrococcus luteus MTCC2470 measured after 24 hrs by well-diffusion method; conditions: MTCC2470, 24 h
[13] = system: Micrococcus luteus; assay: Bactericidal activity against Micrococcus luteus MTCC2470 measured after 24 hrs; conditions: MTCC2470, 24 h
[14] = system: Staphylococcus aureus; assay: Antimicrobial activity against Staphylococcus aureus MTCC96 measured after 24 hrs by well-diffusion method; conditions: MTCC96, 24 h
[15] = system: Staphylococcus aureus; assay: Antimicrobial activity against Staphylococcus aureus MLS16 MTCC2940 measured after 24 hrs by well-diffusion method; conditions: MLS16 MTCC2940, 24 h
[16] = system: Candida albicans; assay: Antimicrobial activity against Candida albicans MTCC227 measured after 24 hrs by well-diffusion method; conditions: MTCC227, 24 h
[17] = system: Candida albicans; assay: Antimicrobial activity against Candida albicans MTCC3958 measured after 24 hrs by well-diffusion method; conditions: MTCC3958, 24 h
[18] = system: Raoultella planticola; assay: Antimicrobial activity against Klebsiella planticola MTCC530 measured after 24 hrs by well-diffusion method; conditions: MTCC530, 24 h
[19] = system: Candida albicans; assay: Antimicrobial activity against Candida albicans MTCC3017 measured after 24 hrs by well-diffusion method; conditions: MTCC3017, 24 h
[20] = system: Pseudomonas aeruginosa; assay: Antimicrobial activity against Pseudomonas aeruginosa MTCCM2453 measured after 24 hrs by well-diffusion method; conditions: MTCCM2453, 24 h

SMILES	MIC [1]	MIC [2]	MBC [3]	MIC [4]	MIC [5]	MIC [6]	MIC [7]	MIC [8]	MBC [9]	MBC [10]	MIC [11]	MIC [12]	MBC [13]	MIC [14]	MIC [15]	MIC [16]	MIC [17]	MIC [18]	MIC [19]	MIC [20]
CCCCCCC(C/C=C\CCCCCCCC(=O)OC)NC(=O)[C@@H]1CCCN1 (some centres undefined)	31.2 µg/mL (≈ 76.4 µM)	31.2 µg/mL (≈ 76.4 µM)	31.2 µg/mL (≈ 76.4 µM)	31.2 µg/mL (≈ 76.4 µM)	15.6 µg/mL (≈ 38.2 µM)	31.2 µg/mL (≈ 76.4 µM)	> 125 µg/mL	31.2 µg/mL (≈ 76.4 µM)	31.2 µg/mL (≈ 76.4 µM)	31.2 µg/mL (≈ 76.4 µM)	31.2 µg/mL (≈ 76.4 µM)	15.6 µg/mL (≈ 38.2 µM)	31.2 µg/mL (≈ 76.4 µM)	15.6 µg/mL (≈ 38.2 µM)	31.2 µg/mL (≈ 76.4 µM)	31.2 µg/mL (≈ 76.4 µM)	31.2 µg/mL (≈ 76.4 µM)	> 125 µg/mL	31.2 µg/mL (≈ 76.4 µM)	> 125 µg/mL
CCCCCCC(C/C=C\CCCCCCCC(=O)OC)NC(=O)[C@@H](N)CC(C)C (some centres undefined)	> 125 µg/mL	> 125 µg/mL		> 125 µg/mL	> 125 µg/mL	> 125 µg/mL	> 125 µg/mL	> 125 µg/mL			> 125 µg/mL	> 125 µg/mL		> 125 µg/mL	> 125 µg/mL	> 125 µg/mL	> 125 µg/mL	> 125 µg/mL	> 125 µg/mL	> 125 µg/mL
CCCCCCC(C/C=C\CCCCCCCC(=O)OC)NC(=O)[C@@H](N)Cc1ccccc1 (some centres undefined)	> 125 µg/mL	> 125 µg/mL		> 125 µg/mL	> 125 µg/mL	> 125 µg/mL	> 125 µg/mL	> 125 µg/mL			> 125 µg/mL	> 125 µg/mL		> 125 µg/mL	> 125 µg/mL	> 125 µg/mL	> 125 µg/mL	> 125 µg/mL	> 125 µg/mL	> 125 µg/mL
CCCCCCC(C/C=C\CCCCCCCC(=O)OC)NC(=O)[C@@H](N)Cc1c[nH]c2ccccc12 (some centres undefined)	> 125 µg/mL	> 125 µg/mL		> 125 µg/mL	> 125 µg/mL	> 125 µg/mL	> 125 µg/mL	> 125 µg/mL			> 125 µg/mL	> 125 µg/mL		> 125 µg/mL	> 125 µg/mL	> 125 µg/mL	> 125 µg/mL	> 125 µg/mL	> 125 µg/mL	> 125 µg/mL
CCCCCCC(C/C=C\CCCCCCCC(=O)OC)NC(=O)[C@@H](N)C(C)C (some centres undefined)	> 125 µg/mL	> 125 µg/mL		> 125 µg/mL	> 125 µg/mL	> 125 µg/mL	> 125 µg/mL	> 125 µg/mL			> 125 µg/mL	> 125 µg/mL		> 125 µg/mL	> 125 µg/mL	> 125 µg/mL	> 125 µg/mL	> 125 µg/mL	> 125 µg/mL	> 125 µg/mL
